The values below come from patent US12151010B2, “Skin lightening agent” (POLA CHEMICAL INDUSTRIES, INC., priority 2018, dated 2024).

SMILES strings stand for the structures.

The test system of this assay is pigmentation of UV-irradiated test sites on the medial upper arms of panelists. The assay can be described thus: Test of skin whitening effect (pigmentation ameliorating effect), skin lightness L* by color difference meter after UV irradiation. Particulars: for Pigmentation amelioration Rating: 25-day application; for Pigmentation amelioration ΔL*: 50 μL twice a day for 25 days after 3x 1 MED UV, L* minus Comparative Example site. It counts as in vivo, human (panelists). Here is the method:
The cosmetics according to Table 1 (Examples 1 to 9, Comparative Example, and Reference Example) were prepared respectively in a conventional manner. With regard to each of the prepared cosmetics, the skin whitening effect (pigmentation ameliorating effect) was evaluated by the following method. That is, total 8 test sites in a size of 0.5 cm×0.5 cm were established on the medial parts of the left and right upper arms of each of 10 panelists who participated voluntarily. Each established site was irradiated with a minimum erythema dose (1 MED) of UV light once a day for three consecutive days, namely totally three times. At the end of the UV irradiation on the first day of the test (at the end of the first irradiation) and thereafter each 50 μL of the cosmetics of Comparative Example and any one of Examples 1 to 9 or Reference Example were applied respectively to one site and the remaining seven sites twice a day for 25 consecutive days. The skin lightness (L* value) of each test site was measured 24 hours after the end of the 25-day application period with a color difference meter (CR-300, Konica Minolta Holdings, Inc.). By subtracting the L* value of the site to which the cosmetic of Comparative Example was applied from each L* value of the sites to which the cosmetic of Example or Reference Example was applied, the difference in skin lightness (ΔL* value) was calculated. Since the L* value decreases, as the degree of pigmentation becomes severer, it may be so judged that pigmentation is ameliorated, when the ΔL* value is higher.

The mark [1] stands for this setting: content 1% by mass in Table 1 cosmetic.
Where [2] appears, read: content 0.01% by mass in Table 1 cosmetic.
Setting [3] is: content 3% by mass in Table 1 cosmetic.

`Cl.NCC1CCC(C(=O)c2ccc(CCC(=O)O)cc2)CC1` (centres unmarked) [Hydrochloride of Compound 1]: under setting [1], the “Pigmentation amelioration Rating” value is given as “AA (ΔL* ≥ 0.5%)” and the “Pigmentation amelioration ΔL*” value stood at 0.52.

For the compound `NCC1CCC(C(=O)c2ccc(CCCO)cc2)CC1` (centres unmarked) [Compound 3, 3-[p-(4-aminomethylcyclohexylcarbonyl)phenyl]propanol], the “Pigmentation amelioration Rating” value by setting is: under setting [2], “A (0.4 < ΔL* < 0.5)”; under setting [1], “A (0.4 < ΔL* < 0.5)”. The “Pigmentation amelioration ΔL*” value under setting [2] is 0.45 and the “Pigmentation amelioration ΔL*” value under setting [1] is listed as 0.48.

As for `CCCCCC(=O)OCCCc1ccc(C(=O)C2CCC(CN)CC2)cc1` (centres unmarked) [Compound 4, 3-[p-(4-aminomethylcyclohexylcarbonyl)phenyl]propyl hexanoate], under setting [1], the “Pigmentation amelioration Rating” value is “A (0.4 < ΔL* < 0.5)” and the “Pigmentation amelioration ΔL*” value was determined as 0.45.

Regarding `NCC1CCC(C(=O)c2ccc(CCC(=O)O)cc2)CC1` (centres unmarked) [Compound 1, 3-[p-(4-aminomethylcyclohexylcarbonyl)phenyl]propionic acid], the “Pigmentation amelioration Rating” value by setting is: under setting [2], “A (0.4 < ΔL* < 0.5)”; under setting [1], “AA (ΔL* ≥ 0.5%)”; under setting [3], “AA (ΔL* ≥ 0.5%)”. Further, the “Pigmentation amelioration ΔL*” value under setting [2] worked out at 0.47, the “Pigmentation amelioration ΔL*” value under setting [1] was 0.50 and the “Pigmentation amelioration ΔL*” value under setting [3] was 0.52.

With `NC[C@H]1CC[C@H](C(=O)O)CC1` [Tranexamic acid, reference compound], under setting [1], the “Pigmentation amelioration Rating” value is “B (ΔL* ≤ 0.4)” and the “Pigmentation amelioration ΔL*” value is recorded as 0.40.

Consider `CCCCCC(=O)OCC(C)Cc1ccc(C(=O)C2CCC(CN)CC2)cc1` (centres unmarked) [Compound 5, 2-methyl-3-[p-(4-aminomethylcyclohexylcarbonyl)phenyl]propyl hexanoate], for which, under setting [1], the “Pigmentation amelioration Rating” value was “A (0.4 < ΔL* < 0.5)” and the “Pigmentation amelioration ΔL*” value turned out to be 0.42.

`CCCCCCOC(=O)CCc1ccc(C(=O)C2CCC(CN)CC2)cc1` (centres unmarked) [Compound 2, 3-[p-(4-aminomethylcyclohexylcarbonyl)phenyl]propionate hexyl]: under setting [1], the “Pigmentation amelioration Rating” value is listed as “A (0.4 < ΔL* < 0.5)” and the “Pigmentation amelioration ΔL*” value is 0.43.
